The nature of data set [1]: Oral absorption test: capsule formulations given orally to fed beagles, concentration in plasma. In kind it is in vivo. The note with it: beagle, 50 mg/kg. As to the method: The compound of the present invention (2 g), DK ester SS (Daiichi Kogyo Seiyaku) and lactose (2.9 g) were weighed and the mixture was mixed slightly in a mortar and the mixture was filtered through 60 mesh strainer twice to give pharmaceutical powder. The pharmaceutical powder was filled in No.0 gelatin capsule 250 mg/cap each. By this method, capsule formulations containing type-A and type-C crystal were prepared respectively.
A beagle was fed with solid food (240 g) and after 30 minutes above prepared capsules were administered in a stomach using sonde for oral administration and tap water (20 ml) was administered with sonde for oral administration.
After administration, 15 minutes, 30 minutes, 1 hour, 2 hours and 3 hours taken a blood of 1 ml from cephalic vein using heparin dealt syringe. The taken sample was disposed under 12000 rpm for 2 minutes and plasma was separated and the concentration of the compound in plasma (μg/ml) was measured.
The dose given to the beagle was 50 mg/kg and 4 beagles for type-A crystal and 3 beagles for type-C crystal.

The nature of data set [2]: Stability test: preservation of crystal powder, DSC caloric transition (ΔH) and X-ray diffraction. The format is physicochemical. As to the method:
Weighing out over approximately 50 mg of type-A crystal powder, it was preserved under the condition of
1) 40° C., 75% RH (relative humidity), unsealed for a month,
2) 40° C., sealed tightly for 6 months.
The type-A crystal preserved under above conditions and another type-A crystal which was preserved at 5° C. were subjected to measurement of differential scanning calorimetry (DSC) and caloric transition (ΔH) per 1 g was calculated from endothermic peak chart (see FIGS. 14-16)
ΔH=peak area/sample weight

Data set [3] has as its system matrix metalloproteinase. The conditions noted are these: as disclosed in WO 99/19296; cited from earlier work.

The text below walks through data of patent US20040152785A1, “Novel crystal of n-hydroxy-2 (s)-methyl-5-ethoxymethoxy-4(s)-[n-(4-phenoxyphenylcarbonyl)amino] pentanamide, process for their production and medicines containing the crystals as the active ingredient” (priority 2000, published 2004).

As for `CCOCOC[C@H](C[C@H](C)C(=O)NO)NC(=O)c1ccc(Oc2ccccc2)cc1` [Type-A crystal, N-hydroxy-2(S)-methyl-5-ethoxymethoxy-4(S)-[N-(4-phenoxyphenylcarbonyl)amino]pentanamide], the “concentration in plasma, comparison of crystals” value in data set [1] is listed as “higher concentration in plasma than type-C crystal”. Moreover, in data set [1] (dog, plasma, po, AUC (area under the blood concentration-time curve), average value, sampling up to 3 hours), the AUC – broadly, concentration integrated over time – worked out at 5100 ng·h/mL. The Cmax in data set [1] (dog, plasma, po, plasma, read-out: Cmax (maximum drug concentration), average value) is 3600 ng/mL. The “ΔH (calorie variation of endothermic peak, absolute value)” value in data set [2] (1 month, 40° C.-75% RH, unsealed) was determined as 14.80 J/g; in data set [2] (6 months, 40° C., sealed tightly) it was 13.41 J/g; in data set [2] (initial (type-A crystal preserved at 5° C.)), 13.40 J/g. For the same compound, the “crystal stability (crystal transition on preservation)” value in data set [2] (40° C.-75% RH a month and 40° C. 6 months, DSC and X-ray diffraction) is given as “stable crystal”.
Consider `CCOCOC[C@H](C[C@H](C)C(=O)NO)NC(=O)c1ccc(Oc2ccccc2)cc1` [compound (I), N-hydroxy-2(S)-methyl-5-ethoxymethoxy-4(S)-[N-(4-phenoxyphenylcarbonyl)amino]pentanamide], for which, in data set [3], the “inhibitory activity against matrix metalloproteinase (MMP)” value is reported as “has an inhibitory activity against matrix metalloproteinase”.
On to `CCOCOC[C@H](C[C@H](C)C(=O)NO)NC(=O)c1ccc(Oc2ccccc2)cc1` [Type-C crystal, N-hydroxy-2(S)-methyl-5-ethoxymethoxy-4(S)-[N-(4-phenoxyphenylcarbonyl)amino]pentanamide, reference compound], for which, in data set [1] (plasma), the “Cmax (maximum drug concentration), average value” was 2000 ng/mL. This compound also yielded an AUC (area under the blood concentration-time curve), average value in data set [1] (plasma, sampling up to 3 hours) of 3500 ng·h/mL.
